Measurements: patent EP0173480A2, “The antiviral use of phyllanthostatins” (priority 1984, dated 1986)
In brackets after ≈: the same amount, converted by molar mass. Read-outs that look alike come from different tables or passages of the source.

Experiments:
[1] = system: herpes simplex virus type 1 (HSV-1, McIntyre); assay: Inhibition of virus replication, virus yield by plaque method; format: cell-based
[2] = system: herpes simplex virus type 2 (HSV-2, MS); assay: as above; format: cell-based; conditions: for HSV-2 virus yield: Vero cells
[3] = system: VSV (vesicular stomatitis virus); format: cell-based; conditions: Vero cells; higher drug concentrations (5 and 50 µg/ml) compared with 0.5
coxsackie A21 = format: cell-based; conditions: ML cells
[4] = system: coxsackie B3 virus (Nancy Strain); assay: Inhibition of virus replication, virus yield in Vero cells; format: cell-based
[5] = system: Herpes Simplex virus type 2 (HSV-2, strain 35D); assay: Genital HSV-2 infection of female mice, intravaginal treatment, survival; format: in vivo; conditions: for mice survived (of 14): study of Table 3; for %S (percent survivors) / MDD (mean day of death): N 14; for deaths: zinc acetate (0.1M)
[6] = system: Herpes Simplex virus type 2 (HSV-2, strain 35D); assay: Genital HSV-2 infection of female mice, virus titers in vaginal secretions; format: in vivo; conditions: for Mean virus titer in swabs of mice which shed virus / Nv/Nt, swabs with virus/total swabs: 8.0 x 10^4 PFU;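 on Mean virus titer in swabs of mice which shed virus: titer expressed as log PFU per ml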
[7] = Drug toxicity in non-infected female mice treated intravaginally; format: in vivo; conditions: compared with saline
Protocol: Where indicated, non-infected mice (5 per group) were treated identically (3 times daily x 5) in order to determine drug toxicity. The groups of mice were weighed at the indicated times.
Non-infected female mice were treated intravaginally with the same drugs, at the same concentrations and with a schedule (3 x daily x 5 days). Animal weights were determined at the time of initiation of treatment (day 0), and again on day 4 (after 12 treatments were given), and again after treatments had been concluded on days 7, 11 and 15. The weights of the groups of mice treated with placebo or the high drug concentrations are shown on Table 3, and the differences in weights in Figure 4. […] Weight gains in mice treated with phyllanthoside (1 mg/ml) were slightly less than that of the above compounds, but by day 15, the mice had the same gain as those treated with phyllanthostatin I, saline or zinc acetate.

PR-8 = conditions: 50 pg of test compound (so in the source)
E.R. = conditions: 50 pg of test compound (so in the source)
Vacc. = conditions: 50 pg of test compound (so in the source)
[8] = Cytotoxicity of drugs, absorbance at 260 nm of lysed cell monolayers; conditions: monkey, vero cells, drug concentration which reduces the OD260 of lysed cells by 50%
Vero cells = assay: as above
Coe = assay: Cell culture antiviral activity, agar-well zones of cytotoxicity / plaque inhibition; conditions: 50 pg of test compound (so in the source)
HA-1 = assay: as above; conditions: 50 pg of test compound (so in the source)
HSV-1 = assay: as above; conditions: 50 pg of test compound (so in the source)
HSV-2 = assay: as above; conditions: 50 pg of test compound (so in the source)
[9] = therapeutic index with ID50 Vero 72 hrs.
[10] = therapeutic index with ID50 Vero 91 hrs.
[11] = higher drug concentrations (5 and 50 µg/ml) compared with 0.5
[12] = 8.0 x 10^3 PFU/0.1 ml, mg/ml cell empty (1 mg/ml in upper section)
[13] = 8.0 x 10^4 PFU/0.1 ml, 1 mg/ml intravaginally
[14] = day 1 after HSV-2 inoc., 0.5 mg/ml
[15] = day 1 after HSV-2 inoc., 1 mg/ml
[16] = day 2 after HSV-2 inoc., 0.5 mg/ml
[17] = day 2 after HSV-2 inoc., 1 mg/ml
[18] = day 3 after HSV-2 inoc., 0.5 mg/ml
[19] = day 3 after HSV-2 inoc., 1 mg/ml
[20] = day 4 after HSV-2 inoc., 0.5 mg/ml
[21] = day 4 after HSV-2 inoc., 1 mg/ml
[22] = day 7 after HSV-2 inoc., 0.5 mg/ml
[23] = day 7 after HSV-2 inoc., 1 mg/ml
[24] = 8.0 x 10^3 PFU/0.1 ml, mg/ml cell empty (44 mg/ml in upper section)
[25] = 8.0 x 10^4 PFU/0.1 ml, 44 mg/ml intravaginally

Compound: CC(=O)O[C@@H]1[C@@H](O)[C@H](O[C@H]2[C@H](OC(=O)[C@H]3CC[C@@H]4[C@H](C3)O[C@@]3(C[C@H](OC(=O)/C=C/c5ccccc5)[C@H](C)CO3)[C@]43CO3)O[C@H](C)[C@@H](O)[C@@H]2OC(C)=O)O[C@H](C)[C@H]1O [Phyllanthoside]
- HSV-1 virus yield ([1]; Vero cells, higher drug concentrations (5 and 50 µg/ml) compared with 0.5): further reductions in all virus yields
- T - ID50/ED90, McIntyre [1, 9]: 0.6402
- T - ID50/ED90, McIntyre [1, 10]: 1.9115
- ED90 MS ([2]; HSV-2 in Vero cells, drug concentration reducing virus titers by 90%, 1440 min): 1.4958 µg per ml
- EC90 ([2]; Human alphaherpesvirus 2, Vero, 24 h, read-out: ED90 MS): 1.5 µg/mL (≈ 1.86 µM)
- HSV-2 virus yield ([2]; 0.5 µg/ml): most susceptible virus to inhibition
- HSV-2 virus yield [2, 11]: further reductions in all virus yields
- T - ID50/ED90, MS [2, 9]: 0.7989
- T - ID50/ED90, MS [2, 10]: 2.3854
- VSV virus yield [3]: further reductions in all virus yields
- coxsackie A21 virus yield (coxsackie A21; 5 µg/ml (below 5 µg per ml)): inhibitory for both viruses
- coxsackie A21 virus yield (coxsackie A21; below 5 µg per ml (i.e., 0.5 or 1), study of b36): reduced titers of coxsackie A21
- coxsackie A21 virus yield (coxsackie A21; [11]): further reductions in all virus yields
- coxsackie B3 virus yield ([4]; 5 µg per ml): inhibitory for both viruses
- coxsackie B3 virus yield ([4]; below 5 µg per ml (i.e., 0.5 or 1)): unaffected
- mice survived (of 14) ([5]; 8.0 x 10^3 PFU in 0.1 ml): 13
- %S (percent survivors) [5, 12]: 93%
- MDD (mean day of death) [5, 12]: 14.0 days
- mice survived (of 14) ([5]; 8.0 x 10^4 PFU in 0.1 ml): 9
- %S (percent survivors) [5, 13]: 64%
- MDD (mean day of death) [5, 13]: 9.0 days
- protection of mice from lethal genital HSV-2 infection, summary in words ([5]; intravaginally from one hour after inoculation, 3 times daily): most effective of the compounds
- mice survived ([5]; second study, 8.0 x 10^4 PFU in 0.1 ml, 0.5 mg/ml): 1
- mice protected from death (of 10) ([5]; second study, 8.0 x 10^4 PFU in 0.1 ml, 1 mg/ml): 7
- mean titer less than placebo treated groups ([6]; 0.5 mg/ml, after the first 3 days): about 0.6 logs
- mean titer less than placebo treated groups ([6]; 0.5 mg/ml, first 3 days): about 1 log
- mean titer less than saline or DMSO-saline treated groups ([6]; 1 mg/ml, day 4): about 0.6 logs
- mean titer less than saline or DMSO-saline treated groups ([6]; 1 mg/ml, days 1, 2 and 3): about one
- Mean virus titer in swabs of mice which shed virus [6, 14]: 2.46 log PFU/ml
- Nv/Nt, swabs with virus/total swabs [6, 14]: 5/10
- Nv/Nt, swabs with virus/total swabs ([6]; day 1 after HSV-2 inoc., 0.5 mg/ml, listed as phyllanthoside): 5
- Mean virus titer in swabs of mice which shed virus [6, 15]: 2.83 log PFU/ml
- Nv/Nt, swabs with virus/total swabs [6, 15]: 2/10
- Nv/Nt, swabs with virus/total swabs ([6]; day 1 after HSV-2 inoc., 1 mg/ml, listed as phyllanthoside): 2
- Mean virus titer in swabs of mice which shed virus [6, 16]: 3.45 log PFU/ml
- Nv/Nt, swabs with virus/total swabs [6, 16]: 7/10
- Mean virus titer in swabs of mice which shed virus [6, 17]: 2.98 log PFU/ml
- Nv/Nt, swabs with virus/total swabs [6, 17]: 3/10
- Nv/Nt, swabs with virus/total swabs ([6]; day 2 after HSV-2 inoc., 1 mg/ml, listed as phyllanthoside): 3
- Mean virus titer in swabs of mice which shed virus [6, 18]: 3.41 log PFU/ml
- Nv/Nt, swabs with virus/total swabs [6, 18]: 8/10
- Mean virus titer in swabs of mice which shed virus [6, 19]: 3.11 log PFU/ml
- Nv/Nt, swabs with virus/total swabs [6, 19]: 5/10
- Nv/Nt, swabs with virus/total swabs ([6]; day 3 after HSV-2 inoc., 1 mg/ml, listed as phyllanthoside): 5
- Mean virus titer in swabs of mice which shed virus [6, 20]: 3.73 log PFU/ml
- Nv/Nt, swabs with virus/total swabs [6, 20]: 8/10
- Mean virus titer in swabs of mice which shed virus [6, 21]: 3.72 log PFU/ml
- Nv/Nt, swabs with virus/total swabs [6, 21]: 4/10
- Nv/Nt, swabs with virus/total swabs ([6]; day 4 after HSV-2 inoc., 1 mg/ml, listed as phyllanthoside): 4
- Mean virus titer in swabs of mice which shed virus [6, 22]: 3.98 log PFU/ml
- Nv/Nt, swabs with virus/total swabs [6, 22]: 2/4
- Mean virus titer in swabs of mice which shed virus [6, 23]: 2.94 log PFU/ml
- Nv/Nt, swabs with virus/total swabs [6, 23]: 3/8
- weight gains ([7]; 1 mg/ml intravaginally 3 x daily x 5 days, zinc acetate groups, same gain by day 15): slightly less
- zone of cytotoxicity (PR-8; first figure of the cell): 3/3
- zone of antiviral activity (viral plaque inhibition) (PR-8; second figure of the cell): 3/3
- zone of cytotoxicity (E.R.; first figure of the cell): 2 (2 - 20-30 mm)
- zone of antiviral activity (viral plaque inhibition) (E.R.; second figure of the cell): 4
- zone of cytotoxicity (Vacc.; first figure of the cell): 4/4
- zone of antiviral activity (viral plaque inhibition) (Vacc.; second figure of the cell): 4/4
- CC50 at 72 h ([8]; ID50 Vero 72 hrs., 72 hours): 1200 µg/mL (≈ 1480 µM)
- CC50 at 91 h ([8]; ID50 Vero 91 hrs., table head 91 hrs., b38 96 hours): 3.57 µg/mL (≈ 4.44 µM)
- OD260 of lysed cells (Vero cells; Vero cells, 0.5 µg per ml, greatly increased OD260 after 72 hours): decreased the OD260 during 72 hours
- cell growth (OD260 of lysed cells) (Vero cells; Vero cells, 1 µg per ml, OD260 increased dramatically at 96 hours): cell growth was suppressed to a greater extent during the first 72 hours
- ID50 Vero 91 hrs. (Vero cells; drug concentration which reduces the OD260 of lysed cells by 50%, table head 91 hrs., b38 96 hours, 5460 min): 3.568 ug per ml
- zone of cytotoxicity (Coe; first figure of the cell): 3
- zone of antiviral activity (viral plaque inhibition) (Coe; second figure of the cell): 0
- zone of cytotoxicity (HA-1; first figure of the cell): 4
- zone of antiviral activity (viral plaque inhibition) (HA-1; second figure of the cell): 0
- zone of cytotoxicity (HSV-1; first figure of the cell): 4/4
- zone of antiviral activity (viral plaque inhibition) (HSV-1; second figure of the cell): 4/4
- zone of cytotoxicity (HSV-2; first figure of the cell): 3
- zone of antiviral activity (viral plaque inhibition) (HSV-2; second figure of the cell): 4

Compound: zinc acetate [Zn(OAc)2, reference compound]
- %S (percent survivors) [5, 24]: 79%
- MDD (mean day of death) [5, 24]: 3.0 days
- deaths ([5]; 8.0 x 10^3 PFU, two of the three deaths on day 4, probably not virus related): 21.4%
- %S (percent survivors) [5, 25]: 71%
- MDD (mean day of death) [5, 25]: 8.3 days
- deaths ([5]; 8.0 x 10^4 PFU): 50%
- mice protected from lethal infection ([5]; second study, 8.0 x 10^4 PFU in 0.1 ml, positive control, concentration not given, 10 mice): 80%
- Mean virus titer in swabs of mice which shed virus ([6]; day 1 after HSV-2 inoc., Zn(OAc)2 concentration not given, value in brackets): (2.60) log PFU/ml
- Nv/Nt, swabs with virus/total swabs ([6]; day 1 after HSV-2 inoc., Zn(OAc)2 concentration not printed): 1/10
- Nv/Nt, swabs with virus/total swabs ([6]; day 1 after HSV-2 inoc., Zn(OAc)2 concentration not printed, listed as zinc acetate): One of 10
- Nv/Nt, swabs with virus/total swabs ([6]; day 2 after HSV-2 inoc., Zn(OAc)2 concentration not given): 1/10
- Mean virus titer in swabs of mice which shed virus ([6]; day 2 after HSV-2 inoc., Zn(OAc)2 concentration not given, value in brackets): (3.54) log PFU/ml
- Nv/Nt, swabs with virus/total swabs ([6]; day 3 after HSV-2 inoc., Zn(OAc)2 concentration not given): 1/10
- Mean virus titer in swabs of mice which shed virus ([6]; day 3 after HSV-2 inoc., Zn(OAc)2 concentration not given, value in brackets): (3.42) log PFU/ml
- Nv/Nt, swabs with virus/total swabs ([6]; day 4 after HSV-2 inoc., Zn(OAc)2 concentration not given): 1/9
- Mean virus titer in swabs of mice which shed virus ([6]; day 4 after HSV-2 inoc., Zn(OAc)2 concentration not given, value in brackets): (4.54) log PFU/ml
- Nv/Nt, swabs with virus/total swabs ([6]; day 7 after HSV-2 inoc., Zn(OAc)2 concentration not given): 0/8
- weight changes ([7]; zinc acetate intravaginally 3 x daily x 5 days): essentially the same
